Read-outs that look alike come from different tables or passages of the source.
Columns and labels:
SRPK2 = SRPK2 (Homo sapiens, UniProt P78362); experiment: Z'-LYTE kinase assay, SRPK2 inhibition; format: biochemical
Description: (§1) IC50 values were determined by Z'-LYTE® kinase assay (catalog number PV3193, Invitrogen™) as described in Hatcher et al., Cell Chem. Biol. 25:460-470 (2018).

SRPK1 = SRPK1 (Homo sapiens, UniProt Q96SB4); experiment: Z'-LYTE kinase assay, SRPK1 inhibition; format: biochemical
Description: as §1

[1] = Z'-LYTE kinase assay, read-out: IC50 (nM) SRPK2
[2] = Z'-LYTE kinase assay, read-out: IC50 (nM) SRPK1

Sequence of SRPK1 (Q96SB4 whole entry): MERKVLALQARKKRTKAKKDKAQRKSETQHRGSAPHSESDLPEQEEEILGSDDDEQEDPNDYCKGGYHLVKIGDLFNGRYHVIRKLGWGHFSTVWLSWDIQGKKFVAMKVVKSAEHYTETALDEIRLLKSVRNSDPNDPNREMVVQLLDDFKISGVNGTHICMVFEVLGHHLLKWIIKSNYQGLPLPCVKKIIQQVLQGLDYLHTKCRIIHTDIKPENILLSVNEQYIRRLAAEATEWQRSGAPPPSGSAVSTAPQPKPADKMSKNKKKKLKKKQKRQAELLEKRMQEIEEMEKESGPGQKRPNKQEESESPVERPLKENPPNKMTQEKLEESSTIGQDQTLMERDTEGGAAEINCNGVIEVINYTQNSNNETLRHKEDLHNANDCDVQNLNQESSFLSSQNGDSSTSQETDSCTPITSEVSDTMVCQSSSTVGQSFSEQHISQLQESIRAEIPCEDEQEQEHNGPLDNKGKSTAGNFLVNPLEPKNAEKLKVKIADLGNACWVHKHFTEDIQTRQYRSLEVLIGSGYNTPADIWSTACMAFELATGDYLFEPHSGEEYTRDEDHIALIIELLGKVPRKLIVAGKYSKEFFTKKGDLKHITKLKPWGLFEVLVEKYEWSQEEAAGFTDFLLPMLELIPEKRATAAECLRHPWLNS
Sequence of SRPK2 (P78362 whole entry): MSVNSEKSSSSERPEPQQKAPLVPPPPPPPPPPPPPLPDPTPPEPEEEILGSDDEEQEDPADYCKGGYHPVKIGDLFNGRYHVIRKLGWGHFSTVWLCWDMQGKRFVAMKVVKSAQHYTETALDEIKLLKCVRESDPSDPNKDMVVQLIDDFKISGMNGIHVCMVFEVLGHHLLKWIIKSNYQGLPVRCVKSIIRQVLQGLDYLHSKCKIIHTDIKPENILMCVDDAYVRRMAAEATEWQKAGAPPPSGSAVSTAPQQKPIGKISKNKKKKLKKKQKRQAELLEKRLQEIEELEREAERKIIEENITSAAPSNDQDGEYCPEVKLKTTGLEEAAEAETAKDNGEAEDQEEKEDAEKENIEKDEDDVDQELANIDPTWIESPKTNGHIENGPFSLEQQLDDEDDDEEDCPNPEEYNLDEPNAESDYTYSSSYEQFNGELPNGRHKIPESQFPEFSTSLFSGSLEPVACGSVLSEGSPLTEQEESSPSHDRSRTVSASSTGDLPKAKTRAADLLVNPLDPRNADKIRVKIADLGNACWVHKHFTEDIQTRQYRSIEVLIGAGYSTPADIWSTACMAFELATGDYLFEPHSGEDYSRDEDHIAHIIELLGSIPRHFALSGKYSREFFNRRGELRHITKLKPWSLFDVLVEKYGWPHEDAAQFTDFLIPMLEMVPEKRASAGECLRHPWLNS

Structure (SMILES) | IC50 (SRPK2; [1]) [nM] | IC50 (SRPK1; [2]) [nM] | IC50 (SRPK2) [nM] | IC50 (SRPK1) [nM]
COc1cc2c(=O)c3c4ccc(C#N)cc4[nH]c3n(C(C)C)c2cc1-c1cncc(S(=O)(=O)F)c1 [Compound 3, 5-(8-cyano-5-isopropyl-2-methoxy-11-oxo-6,11-dihydro-5H-indolo[2,3-b]quinolin-3-yl)pyridine-3-sulfonyl fluoride] | 5 | 6 |  | 
COc1cc2c(=O)c3c4ccc(C#N)cc4[nH]c3n(C(C)C)c2cc1-c1cccc(S(=O)(=O)F)c1 [Compound 2, 3-(8-cyano-5-isopropyl-2-methoxy-11-oxo-6,11-dihydro-5H-indolo[2,3-b]quinolin-3-yl)benzenesulfonyl fluoride] |  |  | 5 | 4
CCc1cc2c(=O)c3c4ccc(C#N)cc4[nH]c3n(C(C)C)c2cc1-c1cccc(S(=O)(=O)F)c1 [Compound 1, 3-(8-cyano-2-ethyl-5-isopropyl-11-oxo-6,11-dihydro-5H-indolo[2,3-b]quinolin-3-yl)benzenesulfonyl fluoride] | 9 | 6 |  | 
